Assay results published in patent US20160061816A1, “SCREENING METHOD FOR ION CHANNEL MODULATORS USING MUTATED BKCA CHANNEL” (GWANGJU INSTITUTE OF SCIENCE AND TECHNOLOGY, priority 2013, published 2016).

Columns and labels:
G733D/N736K BKCa channel [1] = target: T1, G733D/N736K BKCa channel (Homo sapiens, UniProt Q12791, G856D/N859K); assay: FluxOR fluorescence-based assay, cells stably expressing G733D/N736K BKCa channel; assay type: cell-based
T1 construct: NO: 4; expressed in transfected cells
Experimental: (§1) Commercially available FluxOR™ Potassium Ion Channel Assay (Invitrogen) was used in order to perform a fluorescence-based assay for BKCa channels. AD-293 cells stably expressing WT and G733D/N736K BKCa channels were plated onto a poly-D-lysine (Sigma)-coated 96-well microplate (Corning) (5×10^4 cells per well). Cells were pre-cultured with a test compound, CTBIC (4-chloro-7-(trifluoromethyl)-10H-benzofuro[3,2-b]indole-1-carboxylic acid) for 30 minutes in advance of the recording. The fluorescence signal was measured using a Synergy™ H1 Hybrid Multi-Mode Microplate Reader (BioTek Instrument, Inc., Winnoski, Vt.) with Gen5 software. […] The microplate was read every 15 seconds in order to identify whether or not the system of the present invention is suitable for high throughput screening using a standard fluorimeter.
(§2) Finally, the present inventors performed experiments to determine whether cells stably expressing hyperactive BKCa channels are suitable for high-throughput screening for channel activators. […] When cells reached 80% to 90% confluence, FluxOR™ signals were measured. Further, the fluorescence signals from parental AD-293 cell lines were measured as a control group. Prior to reading out the fluorescence, the cells were pre-treated with 10 μM CTBIC or DMSO (control group). […] Relative fluorescence unit (RFU) values increased up to 2.3-fold as compared to basal responses.

WT BKCa channel [2] = target: T2, WT BKCa channel (Homo sapiens, UniProt Q12791); assay: FluxOR fluorescence-based assay, cells stably expressing WT BKCa channel; details: 10 μM CTBIC, stable cell lines expressing WT channel, FIG. 5b
T2 construct: expressed in transfected cells
Experimental: as §1, §2

parental AD-293 cells = assay: FluxOR fluorescence-based assay, parental cell line (control); details: 10 μM CTBIC, FIG. 5a
Experimental: as §1, §2

WT BKCa channel [3] = target: T2, WT BKCa channel; assay: Patch clamp macroscopic current recording, WT BKCa channel; assay type: cell-based
Experimental: Macroscopic current recordings were performed using a gigaohm seal patch clamp method. Patch pipettes were made from borosilicate glass (WPI, Sarasota, Fla.), and then fire polished with resistance of 3-5 MΩ. The channel currents were amplified using Axopatch 200B amplifier (Axon Instruments, Foster City, Calif.), low-pass filtered at 1 or 2 kHz using a four-pole Bessel filter, and then digitized at a rate of 10 or 20 points/ms using a Digidata 1200 A digitizer (Axon Instruments). The ionic currents of BKCa channels were activated by voltage-clamped pulses delivered from a holding potential of −100 mV to membrane potentials ranging from −80 mV to 200 mV in increments of 10 mV. The intracellular and extracellular solutions contained, unless otherwise specified, 116 mM KOH (Sigma), 4 mM KCl (Sigma), 10 mM HEPES and 5 mM EGTA (Sigma), and were titrated to pH 7.2 using MES (2-(N-morpholino)ethanesulfonic acid). In order to precisely measure [Ca^2+]i, the appropriate amount of total […] to be added to the intracellular solution was calculated using MaxChelator software (Patton, et al., 2004; http://maxchelator.stanford.edu/). […]

G733D/N736K BKCa channel [4] = target: T1, G733D/N736K BKCa channel; assay: Patch clamp macroscopic current recording, G733D/N736K BKCa channel; assay type: cell-based
Experimental: Macroscopic current recordings were performed using a gigaohm seal patch clamp method. Patch pipettes were made from borosilicate glass (WPI, Sarasota, Fla.), and then fire polished with resistance of 3-5 MΩ. The channel currents were amplified using Axopatch 200B amplifier (Axon Instruments, Foster City, Calif.), low-pass filtered at 1 or 2 kHz using a four-pole Bessel filter, and then digitized at a rate of 10 or 20 points/ms using a Digidata 1200 A digitizer (Axon Instruments). The ionic currents of BKCa channels were activated by voltage-clamped pulses delivered from a holding potential of −100 mV to membrane potentials ranging from −80 mV to 200 mV in increments of 10 mV. The intracellular and extracellular solutions contained, unless otherwise specified, 116 mM KOH (Sigma), 4 mM KCl (Sigma), 10 mM HEPES and 5 mM EGTA (Sigma), and were titrated to pH 7.2 using MES (2-(N-morpholino)ethanesulfonic acid). In order to precisely measure [Ca^2+]i, the appropriate amount of total […] to be added to the intracellular solution was calculated using MaxChelator software (Patton, et al., 2004; http://maxchelator.stanford.edu/).
In order to evaluate the suitability of cell lines stably expressing G733D/N736K channels as a platform for identification of BKCa channel modulators, the function of a strong BKCa channel activator, CTBIC, which potentiates mutated channel activity, was investigated (Gormemis, et al., 2005; Lee, et al., 2012). […] The relative conductance (G/Gmax) was obtained by normalizing the tail currents (evoked by a step hyperpolarization to −100 mV from a given voltage) to the maximum tail current. The G/Gmax values at 0 μM and 10 μM CTBIC were fitted using a Boltzmann function.

T2 sequence (Q12791 1-1178 isoform Q12791-5): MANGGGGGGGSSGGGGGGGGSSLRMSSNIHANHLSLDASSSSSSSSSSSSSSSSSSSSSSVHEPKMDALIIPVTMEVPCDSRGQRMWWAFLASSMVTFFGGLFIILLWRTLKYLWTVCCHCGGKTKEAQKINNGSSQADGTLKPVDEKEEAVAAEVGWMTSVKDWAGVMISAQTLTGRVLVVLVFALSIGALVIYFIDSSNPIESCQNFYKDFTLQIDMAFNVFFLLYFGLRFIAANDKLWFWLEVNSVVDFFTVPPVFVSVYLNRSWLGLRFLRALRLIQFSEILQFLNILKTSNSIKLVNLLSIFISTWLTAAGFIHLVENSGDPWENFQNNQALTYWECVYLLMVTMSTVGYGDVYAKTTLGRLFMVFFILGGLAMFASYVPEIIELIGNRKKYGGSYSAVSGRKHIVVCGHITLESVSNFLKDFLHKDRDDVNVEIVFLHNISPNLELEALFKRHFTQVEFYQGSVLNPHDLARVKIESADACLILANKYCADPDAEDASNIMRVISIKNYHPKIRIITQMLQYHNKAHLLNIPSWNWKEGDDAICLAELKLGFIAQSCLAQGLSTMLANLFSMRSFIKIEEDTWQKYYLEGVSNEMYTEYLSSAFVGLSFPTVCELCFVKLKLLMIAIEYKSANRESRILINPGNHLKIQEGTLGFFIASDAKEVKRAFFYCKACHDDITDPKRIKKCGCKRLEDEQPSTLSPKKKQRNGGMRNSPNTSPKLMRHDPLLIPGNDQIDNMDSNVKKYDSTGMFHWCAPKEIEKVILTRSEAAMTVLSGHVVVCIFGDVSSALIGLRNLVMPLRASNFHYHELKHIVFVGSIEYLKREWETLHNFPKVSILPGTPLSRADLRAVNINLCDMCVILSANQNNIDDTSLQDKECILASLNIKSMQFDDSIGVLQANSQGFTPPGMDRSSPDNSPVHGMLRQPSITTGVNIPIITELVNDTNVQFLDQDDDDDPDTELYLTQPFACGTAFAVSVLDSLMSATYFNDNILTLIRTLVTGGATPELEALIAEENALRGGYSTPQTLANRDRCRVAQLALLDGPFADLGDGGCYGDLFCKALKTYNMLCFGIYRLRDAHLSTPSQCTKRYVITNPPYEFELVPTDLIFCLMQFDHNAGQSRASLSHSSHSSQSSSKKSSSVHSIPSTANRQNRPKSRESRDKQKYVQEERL
T1 sequence (Q12791 66-1178 isoform Q12791-5 G798D/N801K): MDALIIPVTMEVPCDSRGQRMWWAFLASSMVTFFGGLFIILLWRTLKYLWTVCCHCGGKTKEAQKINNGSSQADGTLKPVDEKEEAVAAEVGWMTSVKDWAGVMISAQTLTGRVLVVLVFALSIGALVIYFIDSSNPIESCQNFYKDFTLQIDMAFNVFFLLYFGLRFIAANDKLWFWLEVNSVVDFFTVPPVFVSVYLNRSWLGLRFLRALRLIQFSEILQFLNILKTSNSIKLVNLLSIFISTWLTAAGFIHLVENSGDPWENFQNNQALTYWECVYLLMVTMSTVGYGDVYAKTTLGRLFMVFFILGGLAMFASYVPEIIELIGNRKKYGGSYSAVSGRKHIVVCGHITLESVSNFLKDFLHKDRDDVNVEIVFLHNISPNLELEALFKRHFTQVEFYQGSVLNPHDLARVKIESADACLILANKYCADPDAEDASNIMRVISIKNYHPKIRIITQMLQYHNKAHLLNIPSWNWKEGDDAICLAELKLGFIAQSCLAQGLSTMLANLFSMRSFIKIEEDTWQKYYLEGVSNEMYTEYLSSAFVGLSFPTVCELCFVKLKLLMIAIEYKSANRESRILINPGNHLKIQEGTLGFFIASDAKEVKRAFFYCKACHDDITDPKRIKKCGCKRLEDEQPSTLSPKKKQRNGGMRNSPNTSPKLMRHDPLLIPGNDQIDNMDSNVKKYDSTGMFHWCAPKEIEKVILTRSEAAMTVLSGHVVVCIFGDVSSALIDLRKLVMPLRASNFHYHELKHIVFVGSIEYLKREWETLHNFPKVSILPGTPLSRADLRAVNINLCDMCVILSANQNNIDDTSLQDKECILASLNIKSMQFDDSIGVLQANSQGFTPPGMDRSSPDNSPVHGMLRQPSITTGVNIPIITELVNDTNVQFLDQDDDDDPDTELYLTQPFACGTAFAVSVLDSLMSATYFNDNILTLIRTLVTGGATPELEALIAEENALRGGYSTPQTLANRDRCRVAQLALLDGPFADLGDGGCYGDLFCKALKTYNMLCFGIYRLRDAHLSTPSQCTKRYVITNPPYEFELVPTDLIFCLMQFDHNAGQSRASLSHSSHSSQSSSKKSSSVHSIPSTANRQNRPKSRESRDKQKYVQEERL

O=C(O)c1ccc(Cl)c2c1[nH]c1c3ccc(C(F)(F)F)cc3oc12 [CTBIC, 4-chloro-7-(trifluoromethyl)-10H-benzofuro[3,2-b]indole-1-carboxylic acid]
Relative fluorescence unit (RFU) increase as compared to basal responses (G733D/N736K BKCa channel [1]; 10 μM CTBIC, 30 min pre-treatment, AD-293 cells stably expressing G733D/N736K channel, stimulus buffer 10 mM free K+): up to 2.3 fold | increase in fluorescence signals (G733D/N736K BKCa channel [1]; stimulus with 10 μM CTBIC, FIG. 5c): ~2.3 times | fluorescence increase (WT BKCa channel [2]): about 1.3 fold | impact on the induced fluorescence increase (parental AD-293 cells): minimum impact | effect on ionic current (WT BKCa channel [3]; 10 μM CTBIC added to membrane patch, 100 nM [Ca2+]i, FIG. 4a): strongly potentiated | shift of G-V curve (WT BKCa channel [3]; 10 μM CTBIC, FIG. 4c): shifted in the negative direction | effect on ionic current (G733D/N736K BKCa channel [4]; 10 μM CTBIC added to membrane patch, 100 nM [Ca2+]i, FIG. 4b): strongly potentiated | shift of G-V curve (G733D/N736K BKCa channel [4]; 10 μM CTBIC, FIG. 4c): shifted in the negative direction | shift in V1/2 value (V1/2 free vs. V1/2 10 μM) (G733D/N736K BKCa channel [4]; 10 μM CTBIC, compared with WT channel, FIG. 4d): much larger than the shift for the WT channel
